Experiments:
dengue virus (DENV) = assay: microbe, parasite or virus in culture; format: cell-based; details: Dengue virus, Vero B, 168 h, read-out: Dengue EC50
yellow fever virus (YFV) = assay: microbe, parasite or virus in culture; format: cell-based; details: Yellow fever virus, Vero B, 168 h, read-out: Yellow fever EC50
in vitro = details: chlorocebus sabaeus

O=C(NCc1ccc(-c2ccncc2)cc1)c1nc[nH]c1C(=O)Nc1ccc(F)cc1 [15g, N^5-(4-fluorophenyl)-N^4-(4-(pyridin-4-yl)benzyl)-1H-imidazole-4,5-dicarboxamide]
> 120 µM: EC50 (dengue virus (DENV)) | EC50 (yellow fever virus (YFV)) | CC50 (in vitro; Dengue CC50) | CC50 (in vitro; Yellow fever CC50)

Source: publication PMC4237513 (European Journal of Medicinal Chemistry, 2014)
